The nature of series [1]: Solubility test in dissolution medium (pH 1.2). The series is classed as physicochemical. Conditions: dissolution medium (pH 1.2) of Korea Pharmacopeia, simulated gastric fluid, thermodynamic from solid; dissolution medium pH 1.2, shaken at 25° C. for 24 hours, HPLC; Mean ± SD, n = 3. The protocol: Samples, equivalent to 30 mg of itraconazole, was added to […] of the test solution. The test solution used was the dissolution medium (pH 1.2) for dissolution test of Korea Pharmacopeia. After the samples were ultrasonicated for 30 minutes, they were shaked at 25° C. for 24 hours. Then, they were centrifuged at 3000 rpm for 20 minutes. The obtained supernatant was filtered using a 0.45 μm membrane filter, followed by 10-fold dilution with methanol. The content of itraconazole was measured by HPLC.

For series [2] the following is noted: cited from earlier work.

Structures are written as SMILES. Converted amounts (≈) assume the structure as drawn.

Usually solubility stands for the concentration that dissolves in the medium under given conditions. On to `CCC(C)n1ncn(-c2ccc(N3CCN(c4ccc(OCC5COC(Cn6cncn6)(c6ccc(Cl)cc6Cl)O5)cc4)CC3)cc2)c1=O` (racemic) [Itraconazole, (±)-cis-4-[4-[4-[4-[[2-(2,4-dichlorophenyl)-2-(1H-1,2,4-triazole-1-yl-methyl)-1,3-dioxolane-4-yl]methoxy]phenyl]-1-piperazinyl]phenyl]-2,4-dihydro-2-(1-methylpropyl)-3H-1,2,4-triazole-3-one], for which, in series [1], the solubility at 24 h was 1.5 ± 0.7 µg/mL (≈ 2.13 µM). Moreover, the Solubility in dichloromethane in series [2] (dichloromethane) is 239 mg/mL (≈ 339000 µM). Besides, in series [2] (water), the Solubility in water result was “less than 1 μg/ml”.

Values taken from patent US20050226924A1, “Composition comprising itraconazole for oral administration” (priority 2004, published 2005).
